Assay results published in patent US20050033056A1, “Hydroxylated indole derivatives and uses thereof” (priority 2001, published 2005).

What was measured:
major CYP expression = assay: CYP induction in primary hepatocyte cultures (summary statement, major CYPs); assay type: cell-based, human; conditions: 72 hour exposure to 10 or 50 μM; primary hepatocyte cultures from three subjects
Description: Upon receiving a primary culture of human hepatocytes in 6-well plates, the culture medium containing streptomycin/penicillin was refreshed (2 ml/well). […] Compound 1 stock solution was added to the culture medium at a 1:400 ratio (v/v). The culture medium and testing compounds were replenished every 24 hours.
At the end of the treatment, the cells were harvested into 1 mL of phosphate-buffered saline (PBS) after washing twice. The cells were precipitated by centrifugation, and were resuspended in PBS (approximately 50 μL). The sample preparation, after mixing with […] of Laemmli buffer (62.5 mM Tris-HCl containing 2% SDS, 25% glycerol, and 0.01% bromophenol, pH 6.8) and being rocked for 2-4 hours, was mixed with 10 μL of 2-mercaptoethanol, and heated at 90° C. for 10 minutes before electrophoresis.
Proteins were resolved in a 12% SDS-PAGE gel using a mini gel apparatus at a constant voltage ([…]) for 70-80 minutes, and transferred onto a polyvinylidene difluoride (PVDF) membrane using a membrane-transferring unit at a constant voltage ([…]) for 60 minutes. The membrane was blocked by 5% non-fat dried milk (NFDM) blotting buffer (PBS containing 0.05% Tween 20) at 4° C. overnight. […] CYP proteins were detected by […] using an X-ray developer.

5-HT1A receptor = target: T1, 5-HT1A receptor (Homo sapiens, UniProt P08908); conditions: background statement, see WO 98/43956 and EP 0 976 732 A1; cited from earlier work
T1 sequence (P08908 1-422): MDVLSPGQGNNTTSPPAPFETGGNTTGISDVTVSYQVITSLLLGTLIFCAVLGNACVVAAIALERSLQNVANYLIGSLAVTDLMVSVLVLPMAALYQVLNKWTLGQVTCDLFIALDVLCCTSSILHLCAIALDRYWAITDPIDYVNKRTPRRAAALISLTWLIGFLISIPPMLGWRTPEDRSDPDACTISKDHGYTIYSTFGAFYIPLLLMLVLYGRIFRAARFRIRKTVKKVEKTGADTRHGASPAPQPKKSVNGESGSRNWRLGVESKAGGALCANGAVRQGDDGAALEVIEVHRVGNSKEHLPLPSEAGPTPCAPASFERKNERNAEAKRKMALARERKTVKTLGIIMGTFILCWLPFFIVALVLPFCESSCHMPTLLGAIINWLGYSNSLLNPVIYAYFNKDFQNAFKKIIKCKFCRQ

CYP2D6 = CYP2D6 (Homo sapiens, UniProt P10635); assay: CYP inhibition in HLM: bufuralol 1'-hydroxylation; assay type: in vitro ADME; set-up: tissue Gentest Corp. (Woburn, Mass.); host or cells: pooled human liver microsomes; conditions: in the presence of Compound 1, concentration-dependent
Description: The incubations were carried out in test tubes (12.0×75 mm). The incubation mixtures (250 μL) contained 0.5 mg of HLM protein, 50 (CYP1A2 and CYP2E1) or 25 (CYP2C9, CYP2C19, CYP2D6 and CYP3A4) pmol of recombinant human CYPs, Compound 1 (10 or 50 μM), probe substrate (R—, S-warfarin, chlorzoxazone, S-mephenyloin, or bufuralol) at different concentrations, and 0.5 mg of NADPH in 50 mM Tris buffer containing 15 mM MgCl2 (pH 7.4). Compound 1 was added to the reaction mixture 5 minutes prior to the addition of the probe substrate. […]
The quantification was based on the calibration curves, and the quality control (QC) samples were applied to ensure the quality of the experiments. […]
3. […] Multiple reaction monitoring (MRM) was applied for the quantification. […]
Data were acquired and analyzed by ChemStation (Version 6.03, Hewlett Packard, Waldbronn, Germany) for 6-, 7-, and 10-hydroxywarfarin and 6-hydroxychlorzoxazone, and MacQuan (Version 1.6, PE Biosystem, Foster City, Calif.) for 1′-hydroxybufuralol and 4′-hydroxymephenytoin. Quantification was based on peak area ratios of metabolites over the respective IS against the respective concentration of the metabolites. […] The metabolic rates were determined using Excel (Microsoft Office 97, Microsoft Corporation, Redmond, Wash.) or SigmaPlot (Version 6.00, SPSS Inc. Chicago, Ill.). […]

Sequence of CYP2D6 (P10635 whole entry): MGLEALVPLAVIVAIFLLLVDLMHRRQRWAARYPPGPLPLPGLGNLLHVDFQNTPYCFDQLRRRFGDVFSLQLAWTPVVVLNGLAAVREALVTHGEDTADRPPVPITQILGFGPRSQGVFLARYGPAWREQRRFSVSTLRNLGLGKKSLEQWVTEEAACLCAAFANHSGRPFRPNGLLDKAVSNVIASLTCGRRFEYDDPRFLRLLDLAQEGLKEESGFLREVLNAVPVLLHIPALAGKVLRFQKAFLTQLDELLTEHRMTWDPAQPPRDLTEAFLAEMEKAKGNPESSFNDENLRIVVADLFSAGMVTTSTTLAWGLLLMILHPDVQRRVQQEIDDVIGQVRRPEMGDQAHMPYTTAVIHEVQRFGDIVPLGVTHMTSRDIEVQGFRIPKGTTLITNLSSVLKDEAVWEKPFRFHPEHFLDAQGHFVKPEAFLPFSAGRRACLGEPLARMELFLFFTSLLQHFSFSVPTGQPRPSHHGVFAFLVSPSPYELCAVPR

## CNC(=O)Cc1ccc2ccn(C3CCN(CCc4ccccc4F)CC3)c2c1 [Compound 1, N-methyl-[1-[1-(2-fluorophenethyl)piperidine-4-yl]-1H-indol-6-yl] acetamide]
Major CYP expression
  Induction of major CYP expression (immunochemical detection): not detected
5-HT1A receptor
  IC50, binding to 5-HT1A receptor: low nanomolar
CYP2D6
  effect on CYP2D6-mediated bufuralol 1'-hydroxylation activity (in words): significantly reduced
